Measurements from US20090036489A1, “Novel Cyclic Aminophenylalkanoic Acid Derivative” (priority 2005, published 2009).

Biological target: T1, human PPARα (Homo sapiens, UniProt Q07869)
T1 construct: expressed in transfected cells; host or cells: CHO-K1
T1 sequence (Q07869 239-466 limits assumed): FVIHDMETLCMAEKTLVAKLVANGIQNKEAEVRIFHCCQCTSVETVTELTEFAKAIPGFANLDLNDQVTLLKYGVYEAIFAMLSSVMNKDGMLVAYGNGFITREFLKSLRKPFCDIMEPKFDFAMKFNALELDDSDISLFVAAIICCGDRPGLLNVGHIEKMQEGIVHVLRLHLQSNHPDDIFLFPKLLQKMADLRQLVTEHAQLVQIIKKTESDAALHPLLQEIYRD
Test: Activation of human PPARα: GAL4-PPARα LBD luciferase reporter transactivation in CHO-K1 cells
Type: cell-based
Conditions: CHO-K1 cells co-transfected with GAL4 DNA-binding domain/human PPARα ligand-binding domain fusion, firefly luciferase reporter normalized to Renilla; 20 hours with test compound
From the text: Activation of Human Peroxisome Proliferator-Activated Receptor α (PPARα)
CHO-K1 cells cultured in Ham's F12 medium supplemented with 10% fetal calf serum (FCS) were co-transfected with a receptor-expression plasmid engineered to express a fusion protein in which the DNA-binding domain of yeast transcription factor GAL4 is fused to the ligand-binding domain of human PPARα (Biochemistry, 1993, 32, 5598), a reporter plasmid (firefly luciferase reporter plasmid, STRATAGENE) and a Renilla luciferase reporter plasmid as an internal control. The plasmids were co-transfected for 2 hours in serum-free medium using Lipofectamine (Invitrogen). Subsequently, the cells were cultured at 37° C. for 20 hours in Ham's F12 medium supplemented with 10% defatted bovine serum and a test compound. The activity of the two luciferases was then measured and firefly luciferase activity was normalized to the internal control Renilla luciferase activity.

EC50 [nM] | SMILES
45 | Cc1nc(-c2ccc(Cl)cc2)sc1C(=O)NCC1CCCN(c2cccc(CC(=O)O)c2)C1 (stereo not shown) [Example 9, 3-[3-[[2-(4-chlorophenyl)-4-methylthiazol-5-yl]carbonylaminomethyl]piperidin-1-yl]phenylacetic acid]
0.1 | Cc1nc(-c2ccc(Cl)cc2)sc1C(=O)NCC1CCCN(c2ccccc2CC(=O)O)C1 (stereo not shown) [Example 8, 2-[3-[[2-(4-chlorophenyl)-4-methylthiazol-5-yl]carbonylaminomethyl]piperidin-1-yl]phenylacetic Acid]
37 | Cc1nc(-c2ccc(Cl)cc2)sc1C(=O)NC1CCCN(c2cccc(CC(=O)O)c2)C1 (stereo not shown) [Example 11, 3-[3-[[2-(4-chlorophenyl)-4-methylthiazol-5-yl]carbonylamino]piperidin-1-yl]phenylacetic acid]
67 | Cc1nc(-c2ccc(Cl)cc2)sc1C(=O)NC1CCCN(c2cccc(OC(C)(C)C(=O)O)c2)C1 (stereo not shown) [Example 14, 2-[3-[3-[[2-(4-chlorophenyl)-4-methylthiazol-5-yl]carbonylamino]piperidin-1-yl]phenoxy]-2-methylpropionic acid]
